Data as given in the supplement of paper PMC10307832.

Experiments:
Assay in all cases: relative viability (nuclei count vs DMSO), 5 days (fraction); higher = more cells survive
[1] = compound: C1=CC=C2C(=C1)N=C(S2)C(C#N)C3=NC(=NC=C3)NCCC4=CN=CC=C4 + CC(=O)c1c(C)c2cnc(Nc3ccc(N4CCNCC4)cn3)nc2n(C2CCCC2)c1=O [Palbociclib] (partner 0.5 µM)
Summary of the method: (§1)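 Lung cancer cell lines in 1536-well plates got either a single drug or a fixed anchor-drug dose together with five library-drug doses (not always all listed) in √10 steps, by pin tool, on the day after seeding. Nuclei were counted after 5 days, and relative viability is the treated-to-vehicle ratio of nuclei counts. Values are medians of duplicate plates.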

[2] = compound: C1=CC=C2C(=C1)N=C(S2)C(C#N)C3=NC(=NC=C3)NCCC4=CN=CC=C4 + C[C@@H](Oc1cc(-c2cnn(C3CCNCC3)c2)cnc1N)c1c(Cl)ccc(F)c1Cl [Crizotinib] (partner 1 µM)
Summary of the method: as §1

[3] = compound: C1=CC=C2C(=C1)N=C(S2)C(C#N)C3=NC(=NC=C3)NCCC4=CN=CC=C4 + C[C@]1(O)C[C@@H](c2nc(-c3ccc4ccc(-c5ccccc5)nc4c3)c3c(N)nccn32)C1 [Linsitinib] (partner 1 µM)
Summary of the method: as §1

[4] = compound: C1=CC=C2C(=C1)N=C(S2)C(C#N)C3=NC(=NC=C3)NCCC4=CN=CC=C4 + Cc1nc(NC(=O)N2CCC[C@H]2C(N)=O)sc1-c1ccnc(C(C)(C)C(F)(F)F)c1 [Alpelisib] (partner 2 µM)
Summary of the method: as §1

Cell Line | relative viability ([1]; first compound 0.005 µM) | relative viability ([1]; first compound 0.01581 µM) | relative viability ([1]; first compound 0.05 µM) | relative viability ([1]; first compound 0.1581 µM) | relative viability ([1]; first compound 0.5 µM) | relative viability ([2]; first compound 0.005 µM) | relative viability ([2]; first compound 0.01581 µM) | relative viability ([2]; first compound 0.05 µM) | relative viability ([2]; first compound 0.1581 µM) | relative viability ([2]; first compound 0.5 µM) | relative viability ([3]; first compound 0.005 µM) | relative viability ([3]; first compound 0.01581 µM) | relative viability ([3]; first compound 0.05 µM) | relative viability ([3]; first compound 0.1581 µM) | relative viability ([3]; first compound 0.5 µM) | relative viability ([4]; first compound 0.005 µM) | relative viability ([4]; first compound 0.01581 µM) | relative viability ([4]; first compound 0.05 µM) | relative viability ([4]; first compound 0.1581 µM) | relative viability ([4]; first compound 0.5 µM)
LCLC-103H | 0.491 | 0.468 | 0.514 | 0.522 | 0.485 | 1.12 | 1.03 | 1 | 1.13 | 0.964 | 1.03 | 1.08 | 1.14 | 1.09 | 1.06 | 0.926 | 0.983 | 0.971 | 0.901 | 0.915
LK-2 | 0.619 | 0.914 | 0.555 | 0.801 | 0.715 | – | – | 0.216 | 0.209 | 0.238 | 0.409 | 0.736 | 0.621 | 0.689 | 0.555 | – | – | 0.993 | 1.3 | 1.11
LOU-NH91 | 0.545 | 0.552 | 0.477 | 0.563 | 0.543 | 0.709 | 0.786 | 0.689 | 0.695 | 0.685 | 0.919 | 0.931 | 0.834 | 0.973 | 0.935 | 0.707 | 0.752 | 0.62 | 0.723 | 0.698
LU99A | 0.398 | 0.41 | – | 0.47 | 0.39 | 0.457 | 0.686 | 0.599 | 0.599 | 0.51 | 0.517 | 0.517 | 0.553 | 0.611 | 0.553 | 0.509 | 0.545 | 0.522 | 0.548 | 0.536
LXF-289 | 0.46 | 0.6 | 0.612 | 0.625 | 0.503 | 0.761 | 0.798 | 0.831 | 0.869 | 0.798 | 0.853 | 1.01 | 1.05 | 1.04 | 0.92 | 0.979 | 1.15 | 1.04 | 1.12 | 0.998
NCI-H23 | – | 0.456 | 0.528 | 0.577 | 0.411 | – | 0.602 | 0.433 | 0.544 | 0.35 | – | 0.685 | 0.583 | 0.85 | 0.533 | – | 0.74 | 0.582 | 0.845 | 0.725
NCI-H322M | 0.427 | 0.501 | 0.484 | 0.476 | 0.488 | 0.845 | 0.85 | 0.953 | 0.891 | 0.796 | 0.88 | 1.03 | 0.899 | 0.987 | 0.803 | 0.825 | 0.77 | 0.68 | 0.899 | 0.709
NCI-H358 | 0.135 | 0.139 | 0.15 | 0.141 | 0.119 | 0.678 | 0.539 | 0.533 | 0.621 | 0.609 | 0.533 | 0.739 | 0.654 | 0.722 | 0.654 | 0.603 | 0.795 | 0.802 | 0.981 | 0.744
NCI-H441 | 0.231 | 0.184 | 0.232 | 0.241 | 0.187 | – | 0.486 | 0.691 | 0.834 | 0.554 | – | 0.499 | 0.533 | 0.617 | 0.447 | – | 0.623 | 0.803 | 1.27 | 0.487
NCI-H460 | – | 0.146 | 0.118 | 0.147 | 0.143 | – | 0.908 | 0.71 | 0.873 | 0.902 | – | 1.15 | 1.02 | 1.17 | 0.502 | – | 0.508 | 0.503 | 0.579 | 0.309
NCI-H520 | 0.193 | 0.266 | 0.231 | 0.259 | 0.213 | 0.564 | 0.856 | 0.947 | 0.882 | 0.569 | 0.552 | 0.97 | 0.923 | 1.11 | 0.735 | 0.508 | 1.09 | 0.793 | 1.13 | 0.665
NCI-H647 | 0.376 | 0.407 | 0.372 | 0.378 | 0.442 | – | 1 | 0.89 | 1.38 | 0.874 | – | 1.17 | 1.16 | 1.25 | 0.976 | – | 1.18 | 0.876 | 1.41 | 0.599
NCI-H650 | 0.321 | 0.336 | 0.301 | 0.321 | 0.323 | 0.484 | 0.67 | 0.568 | 0.672 | 0.704 | 0.838 | 0.578 | 0.803 | 1.26 | 0.984 | 0.859 | 1.22 | 1.04 | 1.18 | 1.2
NCI-H661 | 0.428 | 0.433 | 0.415 | 0.416 | 0.411 | 1.24 | 1.26 | 0.99 | 1.06 | 0.98 | 0.509 | 0.667 | 0.545 | 0.516 | 0.592 | 0.632 | 0.482 | 0.61 | 0.841 | 0.798
NCI-H727 | 0.508 | 0.594 | 0.64 | 0.658 | 0.673 | 0.793 | 0.803 | 0.739 | 0.836 | 0.529 | 0.328 | 0.321 | 0.228 | 0.396 | 0.298 | 0.508 | 0.508 | 0.566 | 0.565 | 0.409
NCI-H838 | 0.223 | 0.211 | 0.216 | 0.214 | 0.213 | 0.546 | 0.87 | 0.817 | 0.861 | 0.555 | 0.713 | 1.08 | 0.957 | 1.03 | 0.874 | 0.841 | 0.965 | 0.959 | 0.961 | 0.852
NCI-H1355 | 0.662 | 0.431 | 0.394 | 0.412 | 0.364 | 1.11 | 1.16 | 1.04 | 1.03 | 0.949 | 0.764 | 0.849 | 0.847 | 1.05 | 0.714 | 0.852 | 0.901 | 0.823 | 0.883 | 0.633
